In the CheMixHub ionic liquid set:
± gives the uncertainty stated by the source.

Experiment: xn = mol fraction of the nth substance listed

FC(F)C(F)(F)OCC(F)(F)C(F)(F)C(F)(F)C(F)F + CCCC[N+]1(C)CCCC1.FC(F)(F)C(F)(F)[P-](F)(F)(F)(C(F)(F)C(F)(F)F)C(F)(F)C(F)(F)F
101 kPa
Conditions | electrical conductivity [S/m] | viscosity [mPa·s]
298.1 K, x2 = 0 | – | 2.5 ± 0.11
298.1 K, x2 = 0.12 | 0.18 ± 0.004 | –
298.1 K, x2 = 0.191 | – | 7.43 ± 0.33
298.1 K, x2 = 0.194 | 0.257 ± 0.005 | –
298.1 K, x2 = 0.272 | 0.28 ± 0.006 | –
298.1 K, x2 = 0.363 | 0.306 ± 0.006 | –
298.1 K, x2 = 0.454 | 0.291 ± 0.006 | –
298.1 K, x2 = 0.456 | – | 25.4 ± 1.1
298.1 K, x2 = 0.564 | 0.241 ± 0.005 | –
298.1 K, x2 = 0.694 | 0.182 ± 0.004 | 65.6 ± 2.8
298.1 K, x2 = 0.847 | – | 117.9 ± 5.8
298.1 K, x2 = 0.853 | 0.161 ± 0.003 | –
303 K, x2 = 0.12 | 0.199 ± 0.004 | –
303 K, x2 = 0.123 | – | 4.63 ± 0.2
303 K, x2 = 0.194 | 0.29 ± 0.006 | –
303 K, x2 = 0.269 | 0.32 ± 0.006 | –
303 K, x2 = 0.359 | 0.35 ± 0.007 | –
303 K, x2 = 0.361 | – | 14.13 ± 0.61
303 K, x2 = 0.457 | 0.335 ± 0.007 | –
303 K, x2 = 0.567 | 0.288 ± 0.006 | 32.7 ± 1.5
303 K, x2 = 0.694 | 0.23 ± 0.005 | –
303 K, x2 = 0.847 | – | 91.9 ± 4.2
303 K, x2 = 0.85 | 0.198 ± 0.004 | –
308.1 K, x2 = 0 | – | 2.12 ± 0.09
308.1 K, x2 = 0.123 | 0.217 ± 0.004 | –
308.1 K, x2 = 0.191 | 0.32 ± 0.006 | –
308.1 K, x2 = 0.272 | 0.36 ± 0.007 | –
308.1 K, x2 = 0.273 | – | 8.09 ± 0.35
308.1 K, x2 = 0.366 | 0.401 ± 0.008 | –
308.1 K, x2 = 0.456 | – | 17.2 ± 0.73
308.1 K, x2 = 0.463 | 0.39 ± 0.008 | –
308.1 K, x2 = 0.564 | 0.343 ± 0.007 | –
308.1 K, x2 = 0.691 | 0.27 ± 0.005 | –
308.1 K, x2 = 0.847 | 0.234 ± 0.005 | 71.6 ± 3.1
313 K, x2 = 0.058 | – | 2.88 ± 0.13
313 K, x2 = 0.123 | 0.239 ± 0.005 | –
313 K, x2 = 0.197 | 0.356 ± 0.007 | –
313 K, x2 = 0.272 | 0.412 ± 0.008 | –
313 K, x2 = 0.359 | 0.449 ± 0.009 | –
313 K, x2 = 0.361 | – | 11.01 ± 0.47
313 K, x2 = 0.46 | 0.442 ± 0.009 | –
313 K, x2 = 0.57 | 0.387 ± 0.008 | –
313 K, x2 = 0.691 | 0.322 ± 0.006 | –
313 K, x2 = 0.694 | – | 33.7 ± 1.5
313 K, x2 = 0.847 | – | 60.6 ± 2.5
313 K, x2 = 0.85 | 0.289 ± 0.006 | –
318.1 K, x2 = 0 | – | 1.65 ± 0.07
318.1 K, x2 = 0.12 | – | 3.41 ± 0.15
318.1 K, x2 = 0.123 | 0.261 ± 0.005 | –
318.1 K, x2 = 0.194 | 0.389 ± 0.008 | –
318.1 K, x2 = 0.271 | 0.452 ± 0.009 | –
318.1 K, x2 = 0.362 | 0.5 ± 0.01 | –
318.1 K, x2 = 0.45 | 0.504 ± 0.01 | –
318.1 K, x2 = 0.456 | – | 13.04 ± 0.55
318.1 K, x2 = 0.567 | 0.449 ± 0.009 | –
318.1 K, x2 = 0.69 | 0.373 ± 0.007 | –
318.1 K, x2 = 0.691 | – | 27.8 ± 1.1
318.1 K, x2 = 0.844 | – | 49.9 ± 2.1
318.1 K, x2 = 0.846 | 0.337 ± 0.007 | –
323 K, x2 = 0 | – | 1.52 ± 0.07
323 K, x2 = 0.119 | 0.283 ± 0.006 | –
323 K, x2 = 0.19 | 0.43 ± 0.009 | –
323 K, x2 = 0.195 | – | 4.04 ± 0.17
323 K, x2 = 0.271 | 0.5 ± 0.01 | –
323 K, x2 = 0.358 | – | 7.89 ± 0.34
323 K, x2 = 0.359 | 0.558 ± 0.011 | –
323 K, x2 = 0.453 | 0.566 ± 0.011 | –
323 K, x2 = 0.563 | 0.508 ± 0.01 | –
323 K, x2 = 0.567 | – | 15.44 ± 0.65
323 K, x2 = 0.69 | 0.424 ± 0.008 | –
323 K, x2 = 0.846 | 0.392 ± 0.008 | –
323 K, x2 = 0.848 | – | 40 ± 1.7

N#C[N-]S(=O)(=O)C(F)(F)F.[Li+] + CCCC[N+]1(C)CCCC1.N#C[N-]S(=O)(=O)C(F)(F)F
101 kPa, frequency 0 MHz
Conditions | electrical conductivity [S/m]
303 K, x1 = 0.1 | 0.295 ± 0.03
318 K, x1 = 0.2 | 0.194 ± 0.019
323 K, x1 = 0.05 | 0.706 ± 0.071
323 K, x1 = 0.1 | 0.558 ± 0.056

101 kPa
Conditions | viscosity [mPa·s]
303 K, x1 = 0.1 | 89.5 ± 4.7
318 K, x1 = 0.2 | 150 ± 8.2
323 K, x1 = 0.05 | 30.3 ± 1.6
323 K, x1 = 0.1 | 43.5 ± 2.2
328 K, x1 = 0.1 | 34.6 ± 1.8

O=S(=O)([N-]S(=O)(=O)C(F)(F)F)C(F)(F)F.[Na+] + CCCC[N+]1(C)CCCC1.O=S(=O)([N-]S(=O)(=O)C(F)(F)F)C(F)(F)F
100 kPa, x1 = 0.24
Conditions | electrical conductivity [S/m]
280.2 K | 0.013 ± 0.001
338.7 K | 0.409 ± 0.025
347.4 K | 0.521 ± 0.031
400.6 K | 1.83 ± 0.11

O=Cc1ccco1 + CCCC[P+](C)(CCCC)CCCC.COS(=O)(=O)[O-]
100 kPa
Conditions | viscosity [mPa·s]
293.15 K, x2 = 0.1 | 9 ± 4
293.15 K, x2 = 0.191 | 41 ± 17
293.15 K, x2 = 0.624 | 270 ± 110
298.15 K, x2 = 0.062 | 2.33 ± 0.94
298.15 K, x2 = 0.1 | 3.5 ± 1.6
303.15 K, x2 = 0.191 | 6.7 ± 2.7
303.15 K, x2 = 0.732 | 182 ± 74
308.15 K, x2 = 0.142 | 4 ± 1.6
308.15 K, x2 = 0.317 | 12.6 ± 5.1
308.15 K, x2 = 0.624 | 58 ± 24
313.15 K, x2 = 0 | 1.17 ± 0.47
313.15 K, x2 = 0.1 | 2.6 ± 1.1
318.15 K, x2 = 0.062 | 1.64 ± 0.66
318.15 K, x2 = 0.142 | 3.5 ± 1.4
318.15 K, x2 = 0.249 | 5.7 ± 2.3
318.15 K, x2 = 0.499 | 20.5 ± 8.3
323.15 K, x2 = 0.191 | 4 ± 1.6
323.15 K, x2 = 0.249 | 4.7 ± 1.9
